One test has as its target Cholinesterase (Homo sapiens, UniProt P06276).
Another test deals with Acetylcholinesterase (Homo sapiens, UniProt P22303). Kind of test: Inhibition of AChE by Ellman's method. (In general: DTNB colorimetry detects thiols as they appear.)
Acetylcholinesterase, sequence (P22303 whole entry): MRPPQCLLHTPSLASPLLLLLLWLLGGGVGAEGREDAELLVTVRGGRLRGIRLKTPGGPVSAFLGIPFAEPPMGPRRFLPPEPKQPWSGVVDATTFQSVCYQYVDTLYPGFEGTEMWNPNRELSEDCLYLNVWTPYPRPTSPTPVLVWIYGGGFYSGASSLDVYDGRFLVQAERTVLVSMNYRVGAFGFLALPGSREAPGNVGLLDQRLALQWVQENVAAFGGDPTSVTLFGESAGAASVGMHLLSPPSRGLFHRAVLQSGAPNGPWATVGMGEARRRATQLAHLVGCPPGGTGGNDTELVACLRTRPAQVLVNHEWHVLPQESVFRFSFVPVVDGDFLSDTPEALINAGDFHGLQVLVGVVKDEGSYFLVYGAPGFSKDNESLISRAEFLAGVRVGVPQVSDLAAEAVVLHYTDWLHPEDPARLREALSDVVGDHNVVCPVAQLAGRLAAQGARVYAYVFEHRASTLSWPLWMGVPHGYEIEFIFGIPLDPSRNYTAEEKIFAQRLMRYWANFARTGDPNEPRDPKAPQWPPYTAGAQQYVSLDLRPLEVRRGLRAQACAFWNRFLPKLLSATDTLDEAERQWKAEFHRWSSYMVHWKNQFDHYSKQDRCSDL

Cholinesterase, sequence (P06276 whole entry): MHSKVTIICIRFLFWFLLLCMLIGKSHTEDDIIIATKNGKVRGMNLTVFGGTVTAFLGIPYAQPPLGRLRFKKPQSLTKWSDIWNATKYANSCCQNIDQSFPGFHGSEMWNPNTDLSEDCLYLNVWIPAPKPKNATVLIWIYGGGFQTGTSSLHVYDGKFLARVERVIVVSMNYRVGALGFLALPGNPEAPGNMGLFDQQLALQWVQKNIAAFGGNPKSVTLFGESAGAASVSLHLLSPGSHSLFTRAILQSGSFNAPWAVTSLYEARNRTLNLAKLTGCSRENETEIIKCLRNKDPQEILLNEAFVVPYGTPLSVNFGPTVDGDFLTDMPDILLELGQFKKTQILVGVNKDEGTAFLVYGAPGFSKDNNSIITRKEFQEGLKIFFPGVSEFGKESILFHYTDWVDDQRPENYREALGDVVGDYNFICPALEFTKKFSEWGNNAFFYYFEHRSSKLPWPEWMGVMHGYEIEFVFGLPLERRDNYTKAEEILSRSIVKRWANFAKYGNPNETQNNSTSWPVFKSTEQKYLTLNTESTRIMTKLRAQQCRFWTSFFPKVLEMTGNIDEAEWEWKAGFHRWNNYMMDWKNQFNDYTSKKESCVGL

The IC50 is the concentration needed to halve the response being measured. For `O=C(NCCNc1c2c(nc3ccccc13)CCCC2)c1ccc(F)cc1`, the IC50 was found to be 0.0449 nM on Cholinesterase and 0.815 nM at Acetylcholinesterase.
With `O=C(NCCCNc1c2c(nc3ccccc13)CCCC2)c1ccc(F)cc1`, the values for the IC50 against Cholinesterase and against Acetylcholinesterase were 0.0212 nM and 0.809 nM, respectively.
With `O=C(NCCCCNc1c2c(nc3ccccc13)CCCC2)c1ccc(F)cc1`, the values for the concentration for half-maximal inhibition (IC50) against Cholinesterase and on Acetylcholinesterase were 0.0354 nM and 0.784 nM, respectively.

The record behind these values is ChEMBL document CHEMBL1811888, “Synthesis, biological activity and HPLC validation of 1,2,3,4-tetrahydroacridine derivatives as acetylcholinesterase inhibitors” (Eur J Med Chem, 2011).
